Where a name gives a salt, the structure may show the parent alone.
Target: adenosine A2A receptor (Homo sapiens, UniProt P29274)
Assay: Adenosine A2A receptor agonist assay (method of Murphree et al.)
Format: binding
Settings: method described by Murphree et al., Mol Pharmacol, Vol. 61, pp. 455-462 (2002)
Excerpt: Compounds of formula (I) and their pharmaceutically acceptable salts are useful as pharmaceuticals. In particular, they activate the adenosine A2A receptor, i.e., they act as A2A receptor agonists.

Sequence of adenosine A2A receptor (P29274 whole entry): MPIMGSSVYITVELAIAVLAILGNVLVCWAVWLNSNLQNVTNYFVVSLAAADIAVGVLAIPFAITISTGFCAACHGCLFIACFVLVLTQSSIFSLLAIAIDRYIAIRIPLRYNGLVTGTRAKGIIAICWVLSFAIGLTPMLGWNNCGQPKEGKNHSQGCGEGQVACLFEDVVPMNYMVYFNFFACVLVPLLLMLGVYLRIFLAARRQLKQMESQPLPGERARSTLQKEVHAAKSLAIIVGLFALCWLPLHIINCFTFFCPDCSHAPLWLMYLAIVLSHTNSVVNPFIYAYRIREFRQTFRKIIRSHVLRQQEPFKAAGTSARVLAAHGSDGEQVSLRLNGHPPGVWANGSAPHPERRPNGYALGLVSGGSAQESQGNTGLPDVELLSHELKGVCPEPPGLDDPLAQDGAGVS

Row | Compound | Ki [nM]
1 | O=C(N[C@@H]1CCNC1)N[C@@H]1CCN(c2nc(NCC(c3ccccc3)c3ccccc3)c3ncn([C@@H]4O[C@H](CO)[C@@H](O)[C@H]4O)c3n2)C1 [Example 11, 1-{(R)-1-[9-(2R,3R,4S,5R)-3,4-Dihydroxy-5-hydroxymethyl-tetrahydro-furan-2-yl)-6-(2,2-diphenyl-ethylamino)-9H-purin-2-yl]-pyrrolidin-3-yl}-3-(R)-pyrrolidin-3-yl-urea trifluoroacetate] | 12
2 | CCn1nnc([C@H]2O[C@@H](n3cnc4c(NCC(c5ccc(O)cc5)c5ccc(O)cc5)nc(N5CC[C@@H](NC(=O)c6ccc(N7CCOCC7)nc6)C5)nc43)[C@H](O)[C@@H]2O)n1 [Example 77, N-((R)-1-{6-[2,2-bis-(4-Hydroxy-phenyl)-ethylamino]-9-[(2R,3R,4S,5R)-5-(2-ethyl-2H-tetrazol-5-yl)-3,4-dihydroxy-tetrahydro-furan-2-yl]-9H-purin-2-yl}-pyrrolidin-3-yl)-6-morpholin-4-yl-nicotinamide trifluoroacetate] | 6

Source: patent US20090240045A1, “Organic Compounds” (Novartis AG, priority 2006, published 2009)
